Each structure is given as a SMILES string. Like-named read-outs stand apart in the source and are kept apart here.

Data set [1] concerns alternaria-induced BALF eosinophils. The data set can be described thus: Murine model of Alternaria alternata-induced eosinophilic inflammation of the lung. It counts as in vivo. The note with it: mouse, oropharyngeal aspiration, 48 h after alternaria challenge, maximum statistically significant percent inhibition. The procedure:
Airway eosinophilia is a hallmark of human asthma. Alternaria alternata is a fungal aeroallergen that can exacerbate asthma in humans and induces eosinophilic inflammation in the lungs of mice (Havaux et al. Clin Exp Immunol. 2005 February; 139(2):179-88).
Seven- to nine-week old male C57 mice from Taconic were used in the study. On the day of study, animals were lightly anesthetized with isoflurane and administered either vehicle or test compound (0.03-1.0 mg/mL, 50 μL total volume over several breaths) via oropharyngeal aspiration. Animals were placed in lateral recumbency post dose and monitored for full recovery from anesthesia before being returned to their home cage. One hour later, animals were once again briefly anesthetized and challenged with either vehicle or alternaria extract (200 ug total extract delivered, 50 μL total volume) via oropharyngeal aspiration before being monitored for recovery from anesthesia and returned to their home cage. Forty-eight hours after alternaria administration, bronchoalveolar lavage fluid (BALF) was collected and eosinophils were counted in the BALF using the Advia 120 Hematology System (Siemens).
Activity in the model is evidenced by a decrease in the level of eosinophils present in the BALF of treated animals at forty-eight hours compared to the vehicle treated, alternaria challenged control animals. Data are expressed as percent inhibition of the vehicle treated, alternaria challenged BALF eosinophils response. To calculate percent inhibition, the number of BALF eosinophils for each condition is converted to percent of the average vehicle treated, alternaria challenged BALF eosinophils and subtracted from one-hundred percent.

Data set [2] in a line: Pharmacokinetics in plasma and lung in mouse. It counts as in vivo. The note with it: oral aspiration, ratio of lung exposure to plasma exposure.
Another data set has as its system human eosinophils. The data set can be described thus: IL-5 mediated eosinophil survival assay. Format: cell-based. The note with it: for IC50: Homo sapiens, Eosinophil, read-out: pIC50 IL-5 mediated eosinophil survival (converted). How it is done: The potency of the test compound for IL-5 mediated eosinophil survival was measured in human eosinophils isolated from human whole blood (AllCells). Because IL-5 signals through JAK, this assay provides a measure of JAK cellular potency.
Human eosinophils were isolated from fresh human whole blood (AllCells) of healthy donors. Blood was mixed with 4.5% Dextran (Sigma-Aldrich) in a 0.9% sodium chloride solution (Sigma-Aldrich). Red blood cells were left to sediment for 35 minutes. The leukocyte rich upper layer was removed and layered over Ficoll-Paque (GE Healthcare) and centrifuged at 600 g for 30 minutes. The plasma and mononuclear cell layers were removed before the granulocyte layer was lysed with water to remove any contaminating red blood cells. Eosinophils were further purified using a human eosinophil isolation kit (Miltenyi Biotec). A fraction of the purified eosinophils were incubated with anti-CD16 FITC (Miltenyi Biotec) for 10 minutes at 4° C. in the dark. Purity was analyzed using a LSRII flow cytometer (BD Biosciences).
Cells were cultured in a 37° C., 5% CO2 humidified incubator in RPMI 1640 (Life Technologies) supplemented with 10% Heat Inactivated Fetal Bovine Serum (FBS, Life Technologies), 2 mM Glutamax (Life Technologies), 25 mM HEPES (Life Technologies) and 1× Pen/Strep (Life Technologies). Cells were seeded at 10,000 cells/well in media (50 μL). The plate was centrifuged at 300 g for 5 minutes and supernatants removed. Compounds were serially diluted in DMSO and then diluted another 500-fold to a 2× final assay concentration in media. […]
After cytokine stimulation, cells were centrifuged at 300 g for 5 min and washed twice with cold DPBS (Life Technologies). To access viability and apoptosis, cells were incubated with Propidium Iodide (Thermo Fisher Scientific) and APC Annexin V (BD Biosciences) and analyzed using a LSRII flow cytometer (BD Biosciences). IC50 values were determined from analysis of the viability curves of percent cell viability vs compound concentration. Data are expressed as pIC50 (negative decadic logarithm IC50) values.

Data set [3] has as its system IL-4 stimulated STAT6 phosphorylation in CD3+ T cells. As to the kind of experiment: Inhibition of IL-4 stimulated pSTAT6 in CD3+ T cells. It counts as cell-based. The following applies: T-cell; CD3+ T cells in human PBMCs; read-out: pIC50 inhibition of IL-4 stimulated pSTAT6 (converted). The procedure: The potency of the test compound for inhibition of interleukin-4 (IL-4) stimulated STAT6 phosphorylation was measured in CD3-positive (CD3+) T cells in human peripheral blood mononuclear cells (PBMCs) isolated from human whole blood (Stanford Blood Center) using flow cytometry. Because IL-4 signals through JAK, this assay provides a measure of JAK cellular potency.
CD3+ T cells were identified using a […] (PE) conjugated anti-CD3 antibody (Clone UCHT1, BD Biosciences), while an Alexa Fluor 647 conjugated anti-pSTAT6 antibody (pY641, Clone 18/P, BD Biosciences) was used to detect STAT6 phosphorylation.
Human peripheral blood mononuclear cells (PBMC) were isolated from human whole blood of healthy donors as in Assays 7 and 8. […] After incubation, cells were washed twice in FACS buffer before being analyzed using a LSRII flow cytometer (BD Biosciences).
To determine the inhibitory potency of the test compound in response to IL-4, the median fluorescent intensity (MFI) of pSTAT6 was measured in CD3+ T cells. IC50 values were determined from analysis of the inhibition curves of MFI vs compound concentration. Data are expressed as pIC50 (negative decadic logarithm IC50).

As to `CCCN1Cc2[nH]c(-c3n[nH]c4cc(-c5cc(F)c(O)cc5CC)ccc34)nc2C[C@H]1C(=O)N1C[C@@H]2C[C@H]1CN2C` [Example 1, ((S)-2-(6-(2-ethyl-5-fluoro-4-hydroxyphenyl)-1H-indazol-3-yl)-5-propyl-4,5,6,7-tetrahydro-3H-imidazo[4,5-c]pyridin-6-yl)((1S,4S)-5-methyl-2,5-diazabicyclo-[2.2.1]heptan-2-yl)methanone], the “Percent Inhibition of Alternaria-induced BALF Eosinophils” value in data set [1] was 90. For the same compound, in data set [2], the “Lung to Plasma ratio Assay 3” value is recorded as “A (A denotes a ratio 100-200)”. Moreover, the “inhibition of IL-5 mediated human eosinophil survival (in words)” value in the data set with human eosinophils was “potently inhibit”. For the same compound, the IC50 in the data set on human eosinophils (in the presence of 10 pg/ml IL-5) is 50.1 nM; in the data set with human eosinophils (in the presence of 1 ng/ml IL-5), 2000 nM; in data set [3], 20 nM.
Regarding `CCc1cc(O)c(F)cc1-c1ccc2c(-c3nc4c([nH]3)CN(C(C)C)[C@H](C(=O)N3CC[C@H](N(C)C)C3)C4)n[nH]c2c1` [Example 3], in data set [1], the “Percent Inhibition of Alternaria-induced BALF Eosinophils” value was found to be 93. Moreover, in data set [2], the “Lung to Plasma ratio Assay 3” value was “B (B denotes a ratio between 50 and 100)”. Also, the IC50 in data set [3] is 10 nM.

For the origin of these results see patent US10208040B2, “Fused imidazo-piperidine JAK inhibitors” (THERAVANCE BIOPHARMA R&D IP, LLC, priority 2017, dated 2019).
